One block for each molecule: values may come before it. Residues, ends and D or L forms follow the SMILES beside them. *: point of attachment. Cbz = O=C(OCc1ccccc1)*; CH2F = FC*
Key:
[1] = system: sFlt-1 expression in first trimester placental explants; assay: sFlt-1 mRNA by qRT-PCR in first trimester villous explants (HIF-1 stabilization / knockdown); type: cell-based, human; conditions: 1.0 mM DMOG, explants at 20% O2; relative level normalized to 18S; 20% O2 alone 1.0±0.03; P<0.05
Method: (§1) Chorionic villous explant culture was performed as previously described (Caniggia, 2000). Briefly, placental tissues (5-8 weeks of gestation, 15 separate sets) were placed in ice-cold PBS and processed within 2 hours of collection. Tissues were aseptically dissected to remove decidual tissue and fetal membranes. Small fragments of placental villi (25-45 mg wet weight) were teased apart, placed on Millicell-CM culture dish inserts (Millipore Corp., Bedford, Mass., USA) pre-coated with 0.15 mL of undiluted Matrigel (Collaborative Biomedical Products, Bedford, Mass., USA), and transferred to a 24-well culture dish. Explants were cultured in serum-free DMEM/F12 (Gibco BRL, Grand Island, N.Y., USA) supplemented with 100 μg/mL streptomycin, 100 U/mL penicillin, and incubated overnight at 37° C. in 5% CO2 in air to allow attachment. Explants were maintained in standard condition (5% CO2 in 95% air) or in an atmosphere of 3% or 8% O2 (92% or 87% N2 and 5% CO2, respectively) for 72 hrs at 37° C. The morphological integrity and viability of villous explants and their EVT outgrowth and migration were monitored daily for up to 5 days as previously reported (Caniggia, 2000). […]
Total RNA was isolated from placental samples using a Trizol-based approach according to the manufacturer's protocol (Invitrogen, CA). […] Relative quantitation of data was performed using logarithmic curves. […]

[2] = system: sFlt-1 expression in first trimester placental explants; assay: sFlt-1 protein immunohistochemistry in villous explants; type: cell-based, human; conditions: DMOG added to 20% O2 explants vs. 20% O2 without DMOG; IHC
Method: as §1, with “Explants were maintained in standard condition (5% CO2 in 95% air) or in an atmosphere of 3% or 8% O2 (92% or 87% N2 and 5% CO2, respectively) for 72 hrs at 37° C.” left out
Paraffin sections were mounted on glass slides, dewaxed in xylene and rehydrated in descending ethanol gradient. […] Finally, avidin biotin complex (Vector Laboratories, Burlingame, Calif.) was applied for 1 hour and staining was detected with the diamino-benzidine chromogen after 5 minutes. […]

villous explants [3] = assay: EVT outgrowth of villous explants; type: cell-based, human; conditions: DMOG-treated explants vs. control explants at 20% O2
Method: Chorionic villous explant culture was performed as previously described (Caniggia, 2000). Briefly, placental tissues (5-8 weeks of gestation, 15 separate sets) were placed in ice-cold PBS and processed within 2 hours of collection. Tissues were aseptically dissected to remove decidual tissue and fetal membranes. Small fragments of placental villi (25-45 mg wet weight) were teased apart, placed on Millicell-CM culture dish inserts (Millipore Corp., Bedford, Mass., USA) pre-coated with 0.15 mL of undiluted Matrigel (Collaborative Biomedical Products, Bedford, Mass., USA), and transferred to a 24-well culture dish. Explants were cultured in serum-free DMEM/F12 (Gibco BRL, Grand Island, N.Y., USA) supplemented with 100 μg/mL streptomycin, 100 U/mL penicillin, and incubated overnight at 37° C. in 5% CO2 in air to allow attachment. Explants were maintained in standard condition (5% CO2 in 95% air) or in an atmosphere of 3% or 8% O2 (92% or 87% N2 and 5% CO2, respectively) for 72 hrs at 37° C. The morphological integrity and viability of villous explants and their EVT outgrowth and migration were monitored daily for up to 5 days as previously reported (Caniggia, 2000). Explants from more than 10 different placentae in more than 15 separate experiments were used. […]

villous explants [4] = assay: TUNEL assay of villous explants; type: cell-based, human; conditions: DMOG treatment or 3% O2 exposure of explants
Method: An in situ cell death detection kit was purchased from Amersham Biosciences, NJ, USA. Terminal deoxynucleotidyl transferase-dUTP-nick end labelling (TUNEL) assays were performed according to instructions provided by the manufacturer. Paraffin sections of tissue were dewaxed in xylene, rehydrated in descending grades of ethanol, and finally soaked in PBS. Tissue sections were pre-treated with Proteinase K (10 μg/mL) in PBS for 10 min, washed and then incubated in 3% hydrogen peroxide in methanol for 45 minutes. After washing in PBS, the slides were preincubated with 1× One Phor All buffer in 0.1% Triton X-100 in water for 30 minutes and then incubated in TdT solution for 1.5 hour at 37° C. Samples were washed in PBS and avidin biotin complex (Vector Laboratories, Burlingame, Calif.) was applied for 1 hour. Staining was detected with the diamino-benzidine chromogen after 10 minutes. Slides were counterstained with haematoxylin, dehydrated in ascending concentrations of ethanol, and fixed with xylene.

[5] = system: Mcl-1 Cleavage in Human Villous Explants; assay: Mcl-1 immunoblot of villous explants exposed to hypoxia-reoxygenation with caspase inhibitors; type: cell-based; conditions: for Mcl-1S amount: 100 μM inhibitor, relative to H/R and untreated tissues; for Mcl-1L cleavage induced by hypoxia-reoxygenation: human villous explants, summary statement
Method: Explant cultures were performed as previously described (Caniggia, 2000). Briefly, placental tissues (5-8 weeks of gestation, 15 sets) were placed in ice-cold PBS and processed within 2 hours of collection. Tissues were aseptically dissected to remove decidual tissue and fetal membranes. Small fragments of placental villi (25-45 mg wet weight) were teased apart, placed on Millicell-CM culture dish inserts (Millipore Corp., Bedford, Mass., USA) pre-coated with 0.15 mL of undiluted Matrigel (Collaborative Biomedical Products, Bedford, Mass., USA), and transferred to a 24-well culture dish. Explants were cultured in serum-free DMEM/F12 (Gibco BRL, Grand Island, N.Y., USA) supplemented with 100 μg/mL streptomycin, 100 U/mL penicillin, and incubated overnight at 37° C. in 5% CO2 in air to allow attachment. Explants were maintained in standard condition (5% CO2 in 95% air) or in an atmosphere of 3% O2/92% N2/5% CO2 for 48 hrs at 37° C. Explants from more than 10 different placentae in more than 15 separate experiments were used. A minimum of 3 explants per experimental condition was used at all times. Explants were exposed to hypoxia-reoxygenation (H/R) as previously described (Hung, 2002; Soleymanlou, 2005) in presence of 100 μM of the pan-caspase inhibitor z-VAD-fmk (BioMol, Plymouth Meeting, Pa.) or caspase-3-specific inhibitor z-DEVD-fmk (R&D Systems, Minneapolis, Minn.) both dissolved in DMSO (equivalent volume of DMSO in absence of inhibitors was used in control conditions).
Western blotting was performed as previously described (MacPhee, 2001). Fifty μg of total protein form placental tissue or cell line was subjected to 12% (wt/vol) SDS-PAGE. Membranes were probed at 4° C. overnight with a 1:1000 dilutions of primary antibodies:rabbit polyclonal Mtd antibody capable of recognizing all isoforms as previously reported (Soleymanlou, 2005); Mcl-1-specific rabbit polyclonal antibody (SC-819 clone S-19 from Santa Cruz Biotechnology, Santa Cruz, Calif.); specific cleaved caspase-3 (Asp175) (5Al) and cleaved caspase-8 (Asp374) rabbit polyclonal antibodies (Cell Signaling, Beverly, Mass.). For anti-Mtd and Mcl-1 antibodies, pre-immune serum and competing peptides were used as controls. A rabbit polyclonal antibody was generated against N-terminal amino acids (28-41) of syncytin (NM_014590) and pre-immune serum was used as control. After overnight incubation, membranes were washed with TBS/T and incubated for 60 minutes at room temperature with 1:5000 diluted horseradish peroxidase-conjugated anti-rabbit (Santa Cruz Biotechnology). Blots were exposed to chemiluminescent ECL-plus reagent (Amersham, Piscataway, N.J.). All blots were confirmed for equal protein loading at all time using ponceau staining.

villous explants [6] = assay: TGFβ treatment of first trimester villous explants: phospho-Smad2/3 and sFlt-1 (Western blot, real-time PCR); type: cell-based, human; conditions: 5 ng/mL, 24 hours
Method: (§2) Early onset (25-33 wks) severe IUGR with abnormal umbilical and uterine artery Doppler and from age-matched normal control tissues were collected. First trimester villous explants and BeWo and JEG-3 choriocarcinoma cell lines were cultured in standard conditions in the presence or absence of TGFβ1 or TGFβ 3 (5 ng/mL) for 24 hours. Message levels of sFlt-1 were measured by quantitative real-time PCR using specific TaqMan primers and probe. Protein expression of sFlt-1 was measured by Western blot using a polyclonal antibody against sFlt-1. In addition, protein lysates from placental tissues, explants and cells lines were analyzed with antibodies that recognize human Smad2, Smad3, Smad7 and phospho-Smad2/3.

BeWo cells = assay: TGFβ treatment of BeWo cells: phospho-Smad2/3 and sFlt-1 (Western blot, real-time PCR); type: cell-based, human; conditions: 5 ng/mL, 24 hours
Method: as §2

villous explants [7] = assay: TGFβ treatment of villous explants: endoglin expression; type: cell-based, human; conditions: villous explants (5-8 wks) vs. non-treated explants
Method: Human placental tissue from first trimester and from discordant dichorionic and monochorionic twins (n=10) and age matched normal twins (n=5) were used as physiological and pathological models of placental hypoxia. In all twins the discordancy was above 25% and absence of end diastolic velocity was documented in the growth-restricted twin. Endoglin mRNA expression was measured by quantitative PCR analysis. Protein expression was measured by Western Blot analysis using endoglin antibodies. Villous explants (5-8 wks) were used to test the effect of both oxygen and TGFβ1 and TGFβ3 on endoglin expression.

[8] = explants under H/R, 100 μM inhibitor in DMSO, immunoblot

Molecule: COC(=O)CNC(=O)C(=O)OC [DMOG, dimethyloxalyl-glycin]
sFlt-1 mRNA expression [1]: 2.4±0.2
sFlt-1 protein expression in trophoblast layers including EVT [2]: increased
explant outgrowth (villous explants [3]): typical low oxygen-induced outgrowth
apoptosis (TUNEL) (villous explants [4]): not likely due to an increased incidence of apoptosis

p29 Mcl-1 (Mcl-1c) band / formation from Mcl-1L [5, 8]: prevented
Mcl-1S amount ([5]; explants under H/R): increased
Mcl-1L cleavage induced by hypoxia-reoxygenation [5]: prevented
Molecule: COC(=O)CC[C@H](NC(=O)[C@H](CC(=O)OC)NC(=O)OCc1ccccc1)C(=O)N[C@H](C(=O)N[C@@H](CC(=O)OC)C(=O)CF)C(C)C [z-DEVD-fmk]

Mcl-1L content [5, 8]: restored
p29 Mcl-1 (Mcl-1c) band / formation from Mcl-1L [5, 8]: abrogated
Mcl-1S amount ([5]; explants under H/R): increased
Mcl-1L cleavage induced by hypoxia-reoxygenation [5]: prevented
Molecule: COC(=O)C[C@H](NC(=O)[C@H](C)NC(=O)[C@@H](NC(=O)OCc1ccccc1)C(C)C)C(=O)CF [z-VAD-fmk] (Cbz-Val-Ala-Asp(OMe)-CH2F)

Molecule: transforming growth factor β1 [TGFβ1]
phospho-Smad2 protein expression (villous explants [6]): increased
phospho-Smad3 protein expression (villous explants [6]): increased
sFlt-1 mRNA level (villous explants [6]): significant increase
sFlt-1 protein level (villous explants [6]): significant increase
phospho-Smad2 protein expression (BeWo cells): increased
phospho-Smad3 protein expression (BeWo cells): increased
sFlt-1 mRNA level (BeWo cells): significant increase
sFlt-1 protein level (BeWo cells): significant increase
expression of membrane endoglin (villous explants [7]): increased
expression of soluble endoglin (villous explants [7]): increased

B1: transforming growth factor β3 (protein, UniProt P10600 301-412, looked up)
Transforming growth factor …: ALDTNYCFRNLEENCCVRPLYIDFRQDLGWKWVHEPKGYYANFCSGPCPYLRSADTTHSTVLGLYNTLNPEASASPCCVPQDLEPLTILYYVGRTPKVEQLSNMVVKSCKCS
notes: transforming growth factor β3 added to explant and cell cultures
phospho-Smad2 protein expression (villous explants [6]): increased
phospho-Smad3 protein expression (villous explants [6]): increased
sFlt-1 mRNA level (villous explants [6]): significant increase
sFlt-1 protein level (villous explants [6]): significant increase
phospho-Smad2 protein expression (BeWo cells): increased
phospho-Smad3 protein expression (BeWo cells): increased
sFlt-1 mRNA level (BeWo cells): significant increase
sFlt-1 protein level (BeWo cells): significant increase
expression of membrane endoglin (villous explants [7]): increased
expression of soluble endoglin (villous explants [7]): increased

From US20090246773A1, “DIAGNOSTIC COMPOSITIONS AND TREATMENT METHODS FOR CONDITIONS INVOLVING TROPHOBLAST CELL DEATH, DIFFERENTIATION, INVASION AND/OR CELL FUSION AND TURNOVER” (Mount Sinai Hospital, priority 2006, published 2009)
